Laboratory results reported in patent US8003327B2, “Methods of screening for risk of proliferative disease and methods for the treatment of proliferative disease” (Duke University, priority 1998, dated 2011).
Values after ≈ are worked out from the molar mass of the structure shown.

Legend:
NT2 cells [1] = test: DNA fragmentation (low molecular weight DNA ladder) in NT2 cells; format: cell-based
Method: FIG. 4. […] NT2 cells were transiently transfected with CLN3 (lanes 1, 3 and 5) or vector alone (lanes 2, 4 and 6) followed by treatment with either 10 μg/ml etoposide (lanes 1 and 2) or 500 nM staurosporine (lanes 3 and 4) or 1 μg/ml vincristine (lanes 5 and 6). Low molecular weight DNA was extracted and analyzed on a 2% agarose gel in Tris-Borate-EDTA buffer (Rosenbaum et al, Ann. Neurol. 36, 864-870 (1994)).
A hallmark of apoptosis is the fragmentation of nuclear DNA into nucleosome-sized fragments creating a DNA ladder of 180 bp and its concatamers (Arends M J, et al., Am. J. Pathol. 136: 593-608 (1990)). […] NT2 cells were transiently transfected with CLN3 or vector alone, then treated with the drugs prior to the extraction of low molecular weight DNA (Rosenbaum D M, et al., Ann. Neurol. 36: 864-870 (1994)).

NT2 cells [2] = test: Dose response of NT2 cell viability to drugs, trypan blue method; format: cell-based; conditions: for IC50: Homo sapiens, 18 hours, trypan blue, read-out: dose resulting in 50% killing at 18 hours
Method: Drug treatments: Dose response curves were established for etoposide, vincristine and staurosporine in NT2 cells (FIGS. 3Ai, 3Bi and 3Ci). […] Survival represents the number of drug treated viable cells divided by the number of untreated viable cells and expressed as a percentage. Protection is calculated as the difference in survival between CLN3-overexpressing cells and the vector-transfected control cells. The degree of protection is calculated as the difference in survival between treated CLN3-overexpressing and vector control cells divided by the survival of treated vector control cells. The values are from three separate experiments, each of which was carried out in triplicate (FIGS. 3Aii, 3Bii, and 3Cii).

Row | Structure (SMILES) | DNA fragmentation in NT2 cells caused by drug (NT2 cells [1]) | IC50 (NT2 cells [2]; NT2 cells) [µg/mL] | apoptosis induction in NT2 cells (NT2 cells [2]; increasing concentrations, counted at 6, 12, 18 and 24 hour) | optimal concentration for causing apoptosis in NT2 cells (NT2 cells [2]; NT2 cells, dose response curves) [nM]
1 | CC[C@]1(O)C[C@H]2CN(CCc3c([nH]c4ccccc34)[C@@](C(=O)OC)(c3cc4c(cc3OC)N(C=O)[C@H]3[C@@](O)(C(=O)OC)[C@H](OC(C)=O)[C@]5(CC)C=CCN6CC[C@]43[C@@H]65)C2)C1 [vincristine] | cause DNA fragmentation | 1 (≈ 1.21 µM) |  | 
2 | CCCCCCCCCCCCC/C=C/[C@@H](O)[C@H](CO)NC(C)=O [C2-ceramide] |  |  | effective apoptotic agent | 
3 | COc1cc([C@@H]2c3cc4c(cc3[C@@H](O[C@@H]3O[C@@H]5CO[C@@H](C)O[C@H]5[C@H](O)[C@H]3O)[C@H]3COC(=O)[C@H]23)OCO4)cc(OC)c1O [etoposide] | cause DNA fragmentation | 10 (≈ 17 µM) |  | 
4 | CN[C@@H]1C[C@H]2O[C@@](C)([C@@H]1OC)n1c3ccccc3c3c4c(c5c6ccccc6n2c5c31)C(=O)NC4 [staurosporine] | cause DNA fragmentation |  |  | 500
